Laboratory results reported in the supplement of paper PMC10307832.

Assays:
Assay in all cases: relative viability (nuclei count vs DMSO), 5 days (fraction); higher = more cells survive
[1] = compound: Cc1ccc2nc(NCCN)c3ncc(C)n3c2c1 + Cc1nc(Nc2ncc(C(=O)Nc3c(C)cccc3Cl)s2)cc(N2CCN(CCO)CC2)n1 [Dasatinib] (partner 0.075 µM)
Summary of the method: (§1)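 One day after seeding in 1536-well plates, lung cancer cell lines were dosed by pin tool. Dosing was either single-drug or a fixed anchor-drug dose plus five library-drug doses (not always all listed) in √10 steps. After 5 days, nuclei were stained in one fix-and-stain step and counted on 4× images, and relative viability is the nuclei count of treated wells over that of vehicle wells, given as the median of duplicate plates.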

Salubrinal + Trametinib = compound: O=C(/C=C/c1ccccc1)NC(NC(=S)Nc1cccc2cccnc12)C(Cl)(Cl)Cl [Salubrinal] + CC(=O)Nc1cccc(-n2c(=O)n(C3CC3)c(=O)c3c(Nc4ccc(I)cc4F)n(C)c(=O)c(C)c32)c1 [Trametinib] (partner 0.02 µM)
Summary of the method: as §1

Salubrinal + Foretinib = compound: O=C(/C=C/c1ccccc1)NC(NC(=S)Nc1cccc2cccnc12)C(Cl)(Cl)Cl [Salubrinal] + COc1cc2c(Oc3ccc(NC(=O)C4(C(=O)Nc5ccc(F)cc5)CC4)cc3F)ccnc2cc1OCCCN1CCOCC1 [Foretinib] (partner 0.25 µM)
Summary of the method: as §1

Salubrinal + Pictilisib = compound: O=C(/C=C/c1ccccc1)NC(NC(=S)Nc1cccc2cccnc12)C(Cl)(Cl)Cl [Salubrinal] + CS(=O)(=O)N1CCN(Cc2cc3nc(-c4cccc5[nH]ncc45)nc(N4CCOCC4)c3s2)CC1 [Pictilisib] (partner 1 µM)
Summary of the method: as §1

| Cell Line | relative viability ([1]; first compound 0.04 µM) | relative viability ([1]; first compound 0.1265 µM) | relative viability ([1]; first compound 0.4 µM) | relative viability ([1]; first compound 1.265 µM) | relative viability ([1]; first compound 4 µM) | relative viability (Salubrinal + Trametinib; first compound 0.08 µM) | relative viability (Salubrinal + Trametinib; first compound 0.253 µM) | relative viability (Salubrinal + Trametinib; first compound 0.8 µM) | relative viability (Salubrinal + Trametinib; first compound 2.53 µM) | relative viability (Salubrinal + Trametinib; first compound 8 µM) | relative viability (Salubrinal + Foretinib; first compound 0.08 µM) | relative viability (Salubrinal + Foretinib; first compound 0.253 µM) | relative viability (Salubrinal + Foretinib; first compound 0.8 µM) | relative viability (Salubrinal + Foretinib; first compound 2.53 µM) | relative viability (Salubrinal + Foretinib; first compound 8 µM) | relative viability (Salubrinal + Pictilisib; first compound 0.08 µM) | relative viability (Salubrinal + Pictilisib; first compound 0.253 µM) | relative viability (Salubrinal + Pictilisib; first compound 0.8 µM) | relative viability (Salubrinal + Pictilisib; first compound 2.53 µM) | relative viability (Salubrinal + Pictilisib; first compound 8 µM) |
| --- | --- | --- | --- | --- | --- | --- | --- | --- | --- | --- | --- | --- | --- | --- | --- | --- | --- | --- | --- | --- |
| NCI-H1437 | 0.379 | 0.419 | 0.438 | 0.399 | 0.351 | 0.563 | 0.601 | 0.52 | 0.545 | 0.494 | 1.3 | 1.23 | 1.3 | 1.25 | 1.29 | 0.449 | 0.484 | 0.415 | 0.417 | 0.328 |
| COR-L23 | 0.525 | 0.514 | 0.518 | 0.46 | 0.403 | 0.7 | 0.734 | 0.736 | 0.581 | 0.518 | 1.1 | 0.932 | 1.13 | 1.01 | 0.889 | 0.946 | 0.666 | 0.899 | 0.676 | 0.432 |
| ABC-1 | 0.613 | 0.573 | 0.501 | 0.57 | 0.594 |  |  |  |  |  | 1.15 | 1.05 | 0.972 | 0.993 | 0.886 | 0.705 | 0.92 | 0.812 | 0.727 | 0.588 |
| SK-MES-1 | 0.489 | 0.339 | 0.392 | 0.35 | 0.305 | 0.634 | 0.526 | 0.512 | 0.561 | 0.525 | 1.08 | 0.85 | 1.04 | 1.12 | 0.713 | 0.435 | 0.339 | 0.356 | 0.305 | 0.335 |
| NCI-H838 | 0.347 | 0.336 | 0.251 | 0.231 | 0.261 | 0.657 | 0.678 | 0.534 | 0.518 | 0.552 | 1.13 | 1.11 | 1.06 | 1.02 | 1.06 | 0.361 | 0.408 | 0.496 | 0.435 | 0.282 |
| SW 900 | 0.419 | 0.759 |  | 0.459 | 0.408 | 0.69 | 0.765 | 0.7 | 0.774 | 1 | 0.78 |  | 0.806 | 0.698 | 0.659 |  |  |  |  |  |
| A549 |  |  |  |  |  |  |  |  |  |  | 1.01 | 0.753 | 0.932 | 0.861 | 0.892 | 0.585 | 0.419 | 0.517 | 0.436 | 0.35 |
| A-427 | 0.682 | 0.654 | 0.644 | 0.632 | 0.628 | 0.782 | 0.812 | 0.791 | 0.689 | 0.764 | 0.993 | 1.32 | 1.18 | 1.02 | 1.17 | 0.805 | 0.748 | 0.853 | 0.785 | 0.759 |
| NCI-H1792 | 0.741 | 0.624 | 0.816 | 0.704 | 0.382 | 0.533 |  | 0.524 | 0.374 | 0.631 |  |  |  |  |  | 0.324 |  | 0.246 | 0.287 | 0.243 |
| LCLC-97TM1 | 0.941 | 0.816 | 0.85 | 0.911 | 0.732 | 0.186 | 0.185 | 0.209 | 0.17 | 0.235 | 0.908 | 0.885 | 0.862 | 0.901 | 1.03 | 0.261 | 0.162 | 0.2 |  | 0.181 |
| NCI-H1703 |  |  |  |  |  |  |  |  |  |  | 0.319 | 0.459 | 0.349 | 0.354 | 0.337 | 0.216 | 0.246 | 0.238 | 0.259 | 0.264 |
| LCLC-103H | 0.584 | 0.495 | 0.421 | 0.562 | 0.442 | 0.737 | 0.682 | 0.691 | 0.738 | 0.673 | 0.849 | 0.687 | 0.818 | 0.768 | 0.817 | 0.591 | 0.599 | 0.743 | 0.562 | 0.535 |
| PC-3 [JPC-3] | 1.11 | 0.995 | 0.857 | 1.01 | 0.932 | 0.734 | 0.697 | 0.65 | 0.693 | 0.651 | 0.99 | 0.918 | 1.07 | 1 | 0.998 | 0.796 | 0.666 | 0.714 | 0.727 | 0.702 |
| BEN | 0.329 | 0.291 | 0.27 | 0.363 | 0.374 | 1.07 | 1.03 | 1.07 | 1.14 | 1.12 | 0.505 | 0.867 | 1.01 | 0.627 | 0.643 | 0.567 | 0.606 | 0.746 | 0.643 | 0.549 |
| Calu-6 |  |  |  |  |  |  |  |  |  |  | 0.979 | 0.865 | 0.907 | 0.806 | 0.803 | 1.11 | 0.817 | 0.925 | 0.871 | 0.792 |
| NCI-H1648 |  |  |  |  |  | 0.657 | 0.456 | 0.662 | 0.492 | 0.325 |  |  |  |  |  |  |  |  |  |  |
| EBC-1 |  |  |  |  |  |  |  |  |  |  | 0.112 | 0.0951 | 0.12 | 0.102 | 0.0993 | 0.332 | 0.373 | 0.4 | 0.273 | 0.248 |
| NCI-H1299 |  |  |  |  |  |  |  |  |  |  | 1.12 | 1.07 | 1.14 | 1.05 | 1.05 | 0.911 | 0.704 | 0.874 | 0.698 | 0.66 |
| NCI-H522 | 0.882 | 0.966 | 0.827 | 0.806 | 0.842 | 0.631 | 0.802 | 0.639 | 0.859 | 0.709 |  |  |  |  |  |  |  |  |  |  |
| IA-LM |  |  |  |  |  |  |  |  |  |  | 1.21 | 0.764 | 1.17 | 1.12 | 0.775 | 0.353 | 0.279 | 0.357 | 0.219 | 0.188 |
| NCI-H1623 | 0.525 | 0.664 | 0.523 | 0.482 | 0.494 |  |  |  |  |  | 0.735 | 0.787 | 0.891 | 0.824 | 0.888 |  |  |  |  |  |
